Measured values reported in ChEMBL document CHEMBL1909046, “DrugMatrix in vitro pharmacology data”.

Columns and labels:
[1] = biological target: Melanocortin receptor 4 (Homo sapiens, UniProt P32245); assay type: cell membranes, Membrane; settings: hek293; further: in other assays of this panel Not Active means under 50% inhibition at 10 µM
[2] = biological target: Carbonic anhydrase 2 (Homo sapiens, UniProt P00918); test: DRUGMATRIX: Carbonic Anhydrase II enzyme inhibition (substrate: 4-Nitrophenyl acetate (4-NPA)); assay type: tissue-based, Erythrocyte; settings: erythrocyte; Not Active = under 50% inhibition at 10 µM
[3] = biological target: T1, Endothelin-1 receptor (Homo sapiens, UniProt P25101); assay type: cell membranes, CHO-K1, Membrane; settings: cho-k1; further: in other assays of this panel Not Active means under 50% inhibition at 10 µM
T1 sequence (P25101 whole entry): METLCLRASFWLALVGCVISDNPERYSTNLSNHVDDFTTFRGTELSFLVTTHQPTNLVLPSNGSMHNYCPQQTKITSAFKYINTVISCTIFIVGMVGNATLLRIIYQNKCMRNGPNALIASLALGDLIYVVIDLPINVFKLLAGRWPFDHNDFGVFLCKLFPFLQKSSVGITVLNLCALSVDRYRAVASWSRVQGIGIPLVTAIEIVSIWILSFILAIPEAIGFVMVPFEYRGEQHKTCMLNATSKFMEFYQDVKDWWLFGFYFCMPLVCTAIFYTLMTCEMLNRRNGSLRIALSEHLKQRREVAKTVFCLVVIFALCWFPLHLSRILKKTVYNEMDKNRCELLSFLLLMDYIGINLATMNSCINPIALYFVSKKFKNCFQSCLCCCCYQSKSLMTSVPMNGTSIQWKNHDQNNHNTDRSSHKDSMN

[4] = DRUGMATRIX: Calcium Channel Type L, Phenylalkylamine radioligand binding (ligand: [3H] (-)-Desmethoxyverapamil (D-888)); assay type: cell membranes, Rattus norvegicus, Wistar, Brain, Membrane; settings: Not Active = under 50% inhibition at 10 µM
[5] = biological target: T2, C-X-C chemokine receptor type 2 (Homo sapiens, UniProt P25025); assay type: cell membranes, Membrane; settings: cho-k1; further: in other assays of this panel Not Active means under 50% inhibition at 10 µM
T2 sequence (P25025 whole entry): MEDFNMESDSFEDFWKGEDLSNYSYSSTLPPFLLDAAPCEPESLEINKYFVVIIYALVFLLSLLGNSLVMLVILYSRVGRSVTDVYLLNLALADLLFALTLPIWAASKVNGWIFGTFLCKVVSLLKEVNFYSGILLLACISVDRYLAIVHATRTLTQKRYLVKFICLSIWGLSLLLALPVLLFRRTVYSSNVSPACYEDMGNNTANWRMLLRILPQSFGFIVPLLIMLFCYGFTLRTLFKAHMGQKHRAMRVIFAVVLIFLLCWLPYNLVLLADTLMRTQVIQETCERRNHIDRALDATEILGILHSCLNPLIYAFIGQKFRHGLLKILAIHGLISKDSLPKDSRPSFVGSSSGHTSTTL

[6] = DRUGMATRIX: GABAA, Muscimol, Central radioligand binding (ligand: [3H] Muscimol); assay type: cell membranes, Rattus norvegicus, Wistar, Brain, Membrane; settings: Not Active = under 50% inhibition at 10 µM
[7] = biological target: T3, D(4) dopamine receptor (Homo sapiens, UniProt P21917); test: DRUGMATRIX: Dopamine D4.2 radioligand binding (ligand: [3H] Spiperone); assay type: cell membranes, CHO-K1, Membrane; settings: cho-k1; Not Active = under 50% inhibition at 10 µM
T3 sequence (P21917 whole entry): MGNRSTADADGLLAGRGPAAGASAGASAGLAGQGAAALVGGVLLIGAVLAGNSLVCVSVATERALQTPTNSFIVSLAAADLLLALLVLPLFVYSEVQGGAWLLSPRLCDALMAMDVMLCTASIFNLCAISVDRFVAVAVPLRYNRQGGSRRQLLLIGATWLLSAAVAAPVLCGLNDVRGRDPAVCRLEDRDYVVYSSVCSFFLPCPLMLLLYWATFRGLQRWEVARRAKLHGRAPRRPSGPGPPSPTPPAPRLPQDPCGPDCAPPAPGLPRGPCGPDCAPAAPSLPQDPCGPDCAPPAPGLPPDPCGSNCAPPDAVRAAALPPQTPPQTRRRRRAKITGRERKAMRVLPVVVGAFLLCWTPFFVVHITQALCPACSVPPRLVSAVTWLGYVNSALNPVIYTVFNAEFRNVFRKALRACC

[8] = biological target: Cytochrome P450 2D6 (Homo sapiens, UniProt P10635); settings: bti-tn-5b1-4; further: in other assays of this panel Not Active means under 50% inhibition at 10 µM
Chain of Cytochrome P450 2D6 (P10635 whole entry): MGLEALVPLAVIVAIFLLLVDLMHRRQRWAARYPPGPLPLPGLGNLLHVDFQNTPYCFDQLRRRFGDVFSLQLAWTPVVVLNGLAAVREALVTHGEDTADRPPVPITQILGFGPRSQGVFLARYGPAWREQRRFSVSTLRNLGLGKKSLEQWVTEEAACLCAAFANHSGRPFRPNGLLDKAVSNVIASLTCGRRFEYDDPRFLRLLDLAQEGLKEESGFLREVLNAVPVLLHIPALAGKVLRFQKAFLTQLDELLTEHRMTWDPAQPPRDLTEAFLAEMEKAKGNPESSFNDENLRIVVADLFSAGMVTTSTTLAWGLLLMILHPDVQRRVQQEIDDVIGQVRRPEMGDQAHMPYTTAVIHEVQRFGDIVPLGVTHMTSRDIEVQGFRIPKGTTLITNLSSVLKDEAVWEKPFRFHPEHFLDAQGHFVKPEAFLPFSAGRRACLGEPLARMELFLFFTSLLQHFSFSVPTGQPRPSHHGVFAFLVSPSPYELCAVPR

Chain of Melanocortin receptor 4 (P32245 whole entry): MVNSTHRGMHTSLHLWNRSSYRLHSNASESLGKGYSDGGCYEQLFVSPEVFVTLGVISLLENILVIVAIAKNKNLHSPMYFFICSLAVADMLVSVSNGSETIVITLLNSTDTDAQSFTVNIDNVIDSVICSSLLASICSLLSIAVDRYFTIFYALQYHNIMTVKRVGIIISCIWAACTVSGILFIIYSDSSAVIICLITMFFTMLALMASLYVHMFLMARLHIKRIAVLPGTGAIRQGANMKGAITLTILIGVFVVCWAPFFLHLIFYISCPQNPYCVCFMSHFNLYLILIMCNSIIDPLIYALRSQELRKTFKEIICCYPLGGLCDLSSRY

CC(C(=O)O)c1ccc(CC2CCCC2=O)cc1 (stereo not given) [LOXOPROFEN]
Not Active: IC50 [1] | IC50 [2] | IC50 [3] | IC50 [4] | Ki [4] | IC50 [5] | IC50 [6] | Ki [6] | IC50 [7] | IC50 [8] | Ki [8]

Cc1cccc(Nc2ccccc2C(=O)O)c1C [MEFENAMIC ACID]
Not Active: IC50 [1] | IC50 [2] | IC50 [3] | IC50 [4] | Ki [4] | IC50 [5] | IC50 [6] | Ki [6] | IC50 [7] | IC50 [8] | Ki [8]

CC(=O)O[C@]1(C(C)=O)CC[C@H]2[C@@H]3C=C(C)C4=CC(=O)CC[C@]4(C)[C@H]3CC[C@@]21C [MEGESTROL ACETATE]
Not Active: IC50 [1] | IC50 [2] | IC50 [3] | IC50 [4] | Ki [4] | IC50 [5] | IC50 [6] | Ki [6] | IC50 [7] | IC50 [8] | Ki [8]

COc1ccccc1OCC(O)COC(N)=O (stereo not given) [METHOCARBAMOL]
Not Active: IC50 [1] | IC50 [2] | IC50 [3] | IC50 [4] | Ki [4] | IC50 [5] | IC50 [6] | Ki [6] | IC50 [7] | IC50 [8] | Ki [8]

CN(Cc1cnc2nc(N)nc(N)c2n1)c1ccc(C(=O)N[C@@H](CCC(=O)O)C(=O)O)cc1 [METHOTREXATE]
Not Active: IC50 [1] | IC50 [2] | IC50 [3] | IC50 [4] | Ki [4] | IC50 [5] | IC50 [6] | Ki [6] | IC50 [7] | IC50 [8] | Ki [8]

COC(=O)c1ccccc1O [METHYL SALICYLATE]
Not Active: IC50 [1] | IC50 [2] | IC50 [3] | IC50 [4] | Ki [4] | IC50 [5] | IC50 [6] | Ki [6] | IC50 [7] | IC50 [8] | Ki [8]

COc1ccc2cc(CCC(C)=O)ccc2c1 [NABUMETONE]
Not Active: IC50 [1] | IC50 [2] | IC50 [3] | IC50 [4] | Ki [4] | IC50 [5] | IC50 [6] | Ki [6] | IC50 [7] | IC50 [8] | Ki [8]

O=C(O)c1cccnc1 [NIACIN]
Not Active: IC50 [1] | IC50 [2] | IC50 [3] | IC50 [4] | Ki [4] | IC50 [5] | IC50 [6] | Ki [6] | IC50 [7] | IC50 [8] | Ki [8]

CNC(=C[N+](=O)[O-])NCCSCc1csc(CN(C)C)n1 [NIZATIDINE]
Not Active: IC50 [1] | IC50 [2] | IC50 [3] | IC50 [4] | Ki [4] | IC50 [5] | IC50 [6] | Ki [6] | IC50 [7] | IC50 [8] | Ki [8]

C[C@]12C/C(=C/O)C(=O)C[C@@H]1CC[C@@H]1[C@@H]2CC[C@@]2(C)[C@H]1CC[C@]2(C)O [OXYMETHOLONE]
Not Active: IC50 [1] | IC50 [2] | IC50 [3] | IC50 [4] | Ki [4] | IC50 [5] | IC50 [6] | Ki [6] | IC50 [7] | IC50 [8] | Ki [8]
